Test results published in patent publication US9302999B2, “Substituted triazoles as herbicides” (E. I. DU PONT DE NEMOURS AND COMPANY, priority 2012, dated 2016).

Tests used:
Assay type in all cases: in vivo
[1] = test system: morningglory (Ipomoea coccinea); test: Test C pre-/postemergence: morningglory
Procedure, shortened: (§1)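 Visual injury scored 0–100 (100 = complete control) against untreated controls after 13–15 greenhouse days. Surfactant-containing solvent formulations applied either to soil after sowing (loam/sand) or over 1- to 4-leaf plants, 2–18 cm tall.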

[2] = test system: johnsongrass (Sorghum halepense); test: Test C pre-/postemergence: johnsongrass
Procedure, shortened: as §1

[3] = test system: crabgrass, large (large crabgrass, Digitaria sanguinalis); test: Test A pre-/postemergence: crabgrass, large
Procedure, shortened: (§2)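 Each species received preemergence soil-directed spraying and, at the same time, postemergence treatment of seedlings 2–10 cm tall. Formulation: non-phytotoxic solvent mixture including surfactant. Response assessed visually about ten days on, relative to untreated controls, 0–100 scale.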

[4] = test system: morningglory (Ipomoea spp.); test: Test A pre-/postemergence: morningglory
Procedure, shortened: as §2

[5] = test system: Waterhemp; test: Test C postemergence: waterhemp; settings: 62 g ai/ha, scale 0 to 100 (0 no effect, 100 complete control)
Procedure, shortened: (§3)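 Seedlings are raised in pots of peat-based medium to 2–18 cm (1- to 4-leaf stage). The formulated compound is then applied postemergence. Plants stay in the greenhouse for 13 to 15 days and are rated visually against controls, where 0 means no effect and 100 complete control.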

[6] = test system: foxtail, giant (giant foxtail, Setaria faberii); test: Test A pre-/postemergence: foxtail, giant
Procedure, shortened: as §2

[7] = test system: velvetleaf (Abutilon theophrasti); test: Test A pre-/postemergence: velvetleaf
Procedure, shortened: as §2

[8] = test system: Oilseed Rape; test: Test C postemergence: oilseed rape; settings: 62 g ai/ha, scale 0 to 100 (0 no effect, 100 complete control)
Procedure, shortened: as §3

[9] = test system: blackgrass (Alopecurus myosuroides); test: Test C pre-/postemergence: blackgrass
Procedure, shortened: as §1

[10] = test system: galium (catchweed bedstraw, Galium aparine); test: Test C pre-/postemergence: galium
Procedure, shortened: as §1

[11] = Postemergence, 31 g ai/ha, scale 0 to 100 (0 no effect, 100 complete control)
[12] = Postemergence, 62 g ai/ha, scale 0 to 100 (0 no effect, 100 complete control)
[13] = Postemergence, 125 g ai/ha, scale 0 to 100, 0 no effect, 100 complete control
[14] = Preemergence, 31 g ai/ha, scale 0 (no effect) to 100 (complete control)
[15] = Preemergence, 62 g ai/ha, scale of 0 to 100, 0 is no effect, 100 is complete control
[16] = Preemergence, 125 g ai/ha, scale 0 to 100, 0 no effect, 100 complete control
[17] = Preemergence, 250 g ai/ha, scale 0 to 100, 0 no effect, 100 complete control
[18] = Postemergence, 250 g ai/ha, scale 0 to 100 (0 no effect, 100 complete control)
[19] = Postemergence, 125 g ai/ha, 0 to 100 scale, 0 is no effect, 100 is complete control
[20] = Postemergence, 500 g ai/ha, 0 to 100 scale, 0 is no effect, 100 is complete control
[21] = Preemergence, 125 g ai/ha, 0 to 100 scale where 0 is no effect and 100 is complete control
[22] = Preemergence, 500 g ai/ha, 0 to 100 scale (0 no effect, 100 complete control)

SMILES: CCc1nn(-c2ccc(F)c(F)c2)nc1Oc1ccnc(C(F)(F)F)c1 [Compound 171]
- Plant response rating, Morningglory [1, 11]: 60
- Plant response rating, Morningglory [1, 12]: 65
- Plant response rating, Morningglory [1, 13]: 98
- Plant response rating, Morningglory [1, 14]: 0
- Plant response rating, Morningglory [1, 15]: 20
- Plant response rating, Morningglory [1, 16]: 25
- Plant response rating, Morningglory [1, 17]: 25
- Plant response rating, Johnsongrass [2, 11]: 15
- Plant response rating, Johnsongrass [2, 12]: 15
- Plant response rating, Johnsongrass [2, 13]: 25
- Plant response rating, Johnsongrass [2, 18]: 25
- Plant response rating, Johnsongrass [2, 14]: 0
- Plant response rating, Johnsongrass [2, 15]: 25
- Plant response rating, Johnsongrass [2, 16]: 75
- Plant response rating, Johnsongrass [2, 17]: 95
- Plant response rating, Crabgrass, Large [3, 19]: 90
- Crabgrass, Large plant response rating [3, 20]: 100
- Plant response rating, Crabgrass, Large [3, 21]: 100
- Plant response rating, Crabgrass, Large [3, 22]: 100
- Plant response rating, Morningglory [4, 19]: 100
- Morningglory plant response rating [4, 20]: 100
- Plant response rating, Morningglory [4, 21]: 50
- Plant response rating, Morningglory [4, 22]: 60
- Plant response rating, Waterhemp [5]: 75
- Plant response rating, Foxtail, Giant [6, 19]: 80
- Foxtail, Giant plant response rating [6, 20]: 90
- Plant response rating, Foxtail, Giant [6, 21]: 100
- Plant response rating, Foxtail, Giant [6, 22]: 100
- Plant response rating, Velvetleaf [7, 19]: 70
- Velvetleaf plant response rating [7, 20]: 90
- Plant response rating, Velvetleaf [7, 21]: 60
- Plant response rating, Velvetleaf [7, 22]: 80
- Plant response rating, Oilseed Rape [8]: 20
- Plant response rating, Blackgrass [9, 11]: 5
- Plant response rating, Blackgrass [9, 12]: 10
- Plant response rating, Blackgrass [9, 13]: 10
- Plant response rating, Blackgrass ([9]; Postemergence, 250 g ai/ha, scale 0 to 100): 30
- Plant response rating, Blackgrass [9, 14]: 5
- Plant response rating, Blackgrass [9, 15]: 98
- Plant response rating, Blackgrass [9, 16]: 100
- Plant response rating, Blackgrass [9, 17]: 100
- Plant response rating, Galium [10, 11]: 70
- Plant response rating, Galium [10, 12]: 75
- Plant response rating, Galium [10, 13]: 80
- Plant response rating, Galium [10, 18]: 80
- Plant response rating, Galium [10, 14]: 5
- Plant response rating, Galium [10, 15]: 98
- Plant response rating, Galium [10, 16]: 98
- Plant response rating, Galium [10, 17]: 100
